Source: patent publication US11382907B2, “Methods and compositions for treating aging-associated impairments using CCR3-inhibitors” (Alkahest, Inc., priority 2017, dated 2022)
Entries after “also recorded” stand apart in the source; their conditions may differ.

Tests used:
[1] = tested on: human eosinophils activated by human eotaxin-1; test: Eosinophil shape change (ESC) assay (FACS, whole blood); format: cell-based; settings: whole blood from humans treated with Compound 1, incubated with human recombinant eotaxin-1
Description: The ESC determines the shape change of human eosinophils activated by human eotaxin-1 (PreProTech, Rocky Hill, N.J.) compared to native eosinophils. The change is detected as the change in the forward-scatter measured by FACS (fluorescence activated cell sorter). The mean forward scatter of the autofluorescence (eosinophil) population for each sample was determined in conjunction with the mean of each set of sample triplicates. Methods of determining ESC have been previously described and are known in the art.
Whole blood from humans treated with Compound 1 was incubated with human recombinant eotaxin-1 to trigger eosinophil shape change (FIG. 34A) or CCR3 receptor internalization (FIG. 34B).

[2] = tested on: inflammatory cytokines TNFa, IL6, IL1beta, IL5, IL17; test: Luminex assay of inflammatory cytokines in plasma of aged mice; format: in vivo, C57Bl/6 mice; settings: 23-month-old mice, 30 mg/kg SQ BID 21 days
Description: Panels of circulating cytokines from mouse plasma were analyzed by Luminex. Luminex Assay Service performed by Eve Technologies (Calgary, Alberta, Canada).
(§1) 23-month-old C57Bl/6 mice were dosed with either vehicle control or Compound 1 subcutaneously twice daily for 21 days. Three weeks later, mice were subjected to behavior testing, and sacrificed the day following the last behavior test.
Treatment Groups: • Treatment Group 1b, Vehicle treatment: Aged C57Bl/6 mice (n=9), aged 23 months, received twice daily (BID) subcutaneous (SQ) treatment of vehicle solution for 21 days. • Treatment Group 4, Compound 1 treatment: Aged C57Bl/6 mice (n=17), aged 23 months, received twice daily (BID) subcutaneous (SQ) treatment of Compound 1, 30 mg/kg, for 21 days.

aged C57Bl/6 mice = test: Y-maze test in aged mice; format: in vivo
Description: A large Y-maze test assesses short-term memory of the familiarity of a specific context. Mice are brought to the experimental room for at least 30 min of acclimation to the experimental room conditions (dim lighting) prior to testing. For the initial training trial, the mouse is placed at the end of one arm of a large Y-maze designated “start arm” (arm length: 15 inches). The third arm of the maze is blocked off, allowing the mouse to explore two of the three arms freely (“start arm” and “familiar arm”) for 5 min. Each arm contains spatial cues. One hour later, the mouse is placed back into the maze in the “start arm” and allowed to explore all three arms with the third arm unblocked (“novel arm”). Movements in and out of each arm are tracked using automated tracking software (CleverSys). Testing is performed under dim lighting, and the apparatus is cleaned with 70% ethanol between trials.
Two-month-old or 18-month-old C57Bl/6 mice were dosed with either IgG antibody control by IP injection or Compound 1 subcutaneously by Alzet osmotic pump for either 2 or 4 weeks. During the last week of treatment, mice were subjected to behavior testing prior to perfusion on the last day of treatment. All mice received 5 consecutive days of BrdU injection at 150 mg/kg IP immediately prior to treatment start.
Three-month-old or 16.5-month-old C57Bl/6 mice were dosed with either vehicle control or Compound 1 subcutaneously by Alzet osmotic pump for 4 weeks. During the last week of treatment, mice were subjected to behavior testing prior to perfusion on the last day of treatment. All mice received 5 consecutive days of BrdU injection at 150 mg/kg IP immediately prior to treatment start.
23-month-old C57Bl/6 mice were dosed with either vehicle control or Compound 1 by oral gavage twice daily for 19 days. After 11 days of treatment, mice were subjected to Y maze testing.
as §1

[3] = tested on: BrdU-positive cells in the hippocampus; test: Histology: BrdU positive cells in hippocampus of aged mice; format: in vivo, C57Bl/6 mice
Description: For fluorescent microscopy, the following antibodies were used in the given concentrations: GFAP, 1:500, DAKO; Iba1, 1:1000, Wako; and BrdU, 1:500, AbCam. Antigen retrieval protocol was required for BrdU (2N HCl, 37 C, 30 min) prior to blocking. The appropriate fluorescent secondary antibodies were applied the next day at a concentration of 1:300 for one hour at room temperature. Prolong Gold Mounting Media was used to coverslip the slides. Images were acquired on a light microscope at 5× magnification.
Two-month-old or 18-month-old C57Bl/6 mice were dosed with either IgG antibody control by IP injection or Compound 1 subcutaneously by Alzet osmotic pump for either 2 or 4 weeks. During the last week of treatment, mice were subjected to behavior testing prior to perfusion on the last day of treatment. All mice received 5 consecutive days of BrdU injection at 150 mg/kg IP immediately prior to treatment start. […]

[4] = 23-month-old mice, 30 mg/kg SQ BID 21 days, tested three weeks later
[5] = 23-month-old mice, 30 mg/kg oral gavage BID, tested after 11 days

Q: What does the source list for `Cc1cc(C(=O)N(C)C)cc(NC(=O)[C@H]2CCC(=O)N2C2CCN(Cc3ccc(Cl)c(C)c3)CC2)n1` [Compound 1]?
A: inhibition of eosinophil shape change versus plasma Compound 1 concentration [1]: robust concentration-dependent effect; plasma IL1beta level [2]: strong trends in decrease; also recorded: trend lower; plasma IL5 level [2]: strong trends in decrease; also recorded: trend lower; plasma IL6 level [2]: strong trends in decrease; also recorded: trend lower; plasma IL17 level [2]: strong trends in decrease; also recorded: trend lower; plasma TNFa level [2]: strong trends in decrease; also recorded: trend lower; cognitive performance in the cued Y-maze (aged C57Bl/6 mice; 16.5-month-old mice, four-week subcutaneous dosing by pump): improved cognitive performance; performance in the cued Y-maze (aged C57Bl/6 mice; 18-month-old mice, low or high infusion for 2 or 4 weeks): improvement in the cued Y-maze; Y-maze duration of time spent in the novel arm (aged C57Bl/6 mice; [4]): exhibited intact memory for the novel arm; Y-maze number of visits to the novel arm (aged C57Bl/6 mice; [4]): exhibited intact memory for the novel arm; memory in the Y-maze (aged C57Bl/6 mice; [4]): significantly improved memory; velocity during the Y-maze test (aged C57Bl/6 mice; [4]): significantly increased the velocity; Y-maze number of visits to the novel arm (aged C57Bl/6 mice; [5]): exhibited intact memory for the novel arm; distance travelled during the Y-maze test (aged C57Bl/6 mice; [5]): significantly increased the distance travelled; memory in the Y-maze (aged C57Bl/6 mice; [5]): significantly improved memory; BrdU-positive cells in the hippocampus ([3]; 16.5-month-old mice, four-week dosing by pump): significantly increased the number of BrdU-positive cells; BrdU-positive cells in the hippocampus ([3]; 18-month-old mice, higher dosing for 2 weeks by pump): trend in increased BrdU-positive cells
